Test results reported in US10034879B2, “Substituted benzaldehyde compounds and methods for their use in increasing tissue oxygenation” (Global Blood Therapeutics, Inc., priority 2011, dated 2018).

Experiments:
[1] = test system: Transgenic mice producing human HbS; conditions: extreme hypoxia (5% oxygen), vs non-treated mice; cited from earlier work
[2] = biological target: T1, HbS/A (Homo sapiens, UniProt P68871+P69905, E7V); assay: Relaxed-to-tense transition assay (R/T assay); assay type: biochemical; conditions: 3 μM HbS/A
T1 construct: A mixture of HbS/A was purified from blood; from tissue; host or cells: blood of homozygous sickle cell patients
Method: A relaxed-to-tense transition assay (“R/T assay”) was used to determine the ability of substituted benzaldehyde compounds to maintain the high-oxygen affinity relaxed (R) state of hemoglobin under deoxygenated conditions. This ability can be expressed as a “delta R” value (i.e., the change in the time-period of the R state after hemoglobin is treated with a compound, as compared to the period without treatment with the compound). Delta R is the % R to remaining after the compounds treatment compared with no treatment (e.g. if R % without treatment is 8% while with treatment with a target compound is 48% R at 30 μM, then % R is 40% for that compound.
A mixture of HbS/A was purified from blood obtained from homozygous sickle cell patients though the Hemoglobinopathy Center at Children's Hospital Oakland Research Institute (CHORI) with Institutional Review Board approval. HbS/A (at a final concentration of 3 μM) was incubated for 1 hr at 37° C. in presence or absence of compounds in […] potassium phosphate buffer, pH=7.4 and 30 μM 2, 3 diphosphoglycerate (DPG) in 96 well plates in a final volume of 160 μl. Compounds were added at different concentrations (3 μM to 100 μM final concentrations). Plates were covered with a Mylar film. After incubation was completed the Mylar cover was removed and the plates were placed in a Spectrostar Nano plate reader previously heated at 37° C. Five minutes later, N2 (flow rate=20 L/min) was flowed through the spectrophotometer. Spectroscopic measurements (300 nm to 700 nm) were taken every 5 min for 2 hours. Data analysis was performed by using linear regression from the data retrieved for all wavelengths.
Table 4 below lists the delta R values where + indicates a delta R of between 0 and 30, ++ indicates a delta R of between 30 and 50, and +++ indicates a delta R of 50 or greater. Unless noted otherwise, the compounds in Table 2 were tested at 9 μM.

[3] = biological target: T2, HbS (Homo sapiens, UniProt P68871+P69905, E7V); assay: Whole blood assay, oxygen equilibrium curves of whole blood from sickle cell patients; assay type: cell-based; conditions: hematocrit 20%, compound at 1000 μM
T2 construct: Oxygen Equilibrium Curves (OEC) of whole blood before and after treatment; endogenous in cells; host or cells: whole blood (red blood cells) of homozygous sickle cell patients
Method: Oxygen Equilibrium Curves (OEC) of whole blood before and after treatment with different concentrations of substituted benzaldehyde compounds were performed as follows using a HEMOX analyzer (TCS Scientific, New Hope, Pa.). Blood samples from homozygous sickle cell patients were obtained though the Hemoglobinopathy Center at Children's Hospital Oakland Research Institute (CHORI) with Institutional Review Board approval. The hematocrit was adjusted to 20% using autologous plasma and the blood samples were incubated for 1 hour at 37° C. in absence or presence of compounds. 100 μl of these samples were added to 5 mL of Hemox buffer (30 mM TES, 130 mM NaCl, 5 mM KCl, pH=7.4) at 37° C. and then transferred to the Hemox sample chamber. The samples were saturated with oxygen by flushing with compressed air for 10 minutes. The samples were then flushed with pure nitrogen and the respective absorbances of oxy- and deoxy-Hb are recorded as a function of the solution pO2. The oxygen equilibrium data were then fitted to the Hill Model to obtain values for p50. The deoxygenation curves for both whole blood alone (control) and whole blood in the presence of the compound were collected with the TCS software.
Table 5 below lists the delta p50% values where + indicates a delta p50% of between 0 and 29, ++ indicates a delta p50% of between 30 and 50, and +++ indicates a delta p50% of 50 or greater. The compounds in Table 2 were tested at 1000 μM.

[4] = biological target: T3, purified HBS (Homo sapiens, UniProt P68871+P69905, E7V); assay: HbS polymerization assay (delay time); assay type: biochemical; conditions: 50 μM purified HBS, 1.8 M potassium phosphate pH 7.4
T3 construct: HbS is purified by the CRO VIRUSYS, from blood obtained from homozygous sickle cell patients; tissue VIRUSYS (CRO that did the purification); host or cells: blood of homozygous sickle cell patients
Method: Polymerization assays are carried out in vitro using purified HBS exchanged into 1.8 M potassium phosphate buffer at pH 7.4. Using a slightly modified protocol (Antonini and Brunori, 1971), HbS is purified by the CRO VIRUSYS, from blood obtained from homozygous sickle cell patients through the Hemoglobinopathy Center at Children's Hospital Oakland Research Institute (CHORI) with Institutional Review Board approval. Compounds are prepared in 100% DMSO and a desired amount is added to 50 μM of purified HBS at a final DMSO concentration of 0.3%. Final potassium phosphate concentration is adjusted to 1.8 M using a combination of 2.5 M potassium phosphate stock solution and water at pH 7.4. The reaction mixture is incubated for an hour at 37° C. and then transferred into a 24-well plate for deoxygenation in a glove box containing 99.5% nitrogen and 0.5% oxygen. The 24-well plate is not covered and incubated at 4° C. on a plate cooler inside the glove box for one and a half hours. Fifty μL of the reaction mixture is transferred into a 96-well plate and the absorbance at 700 nm is measured every minute for one hour at 37° C. in a plate reader located inside the glove box. A plot of the absorbance against time is fitted using a Boltzman sigmoidal fit and the delay time (from zero to time at half Vmax) is measured. To compare and rank compounds, delay times are expressed as percent delay (% DT), which is defined as the difference in delay times for HBS/compound and HBS alone multiplied by 100 and divided by the delay time for HBS alone.
Compounds listed below have been tested in the polymerization assay. Activity ranges are defined by the number of dagger (†) symbols indicated. † denotes activity ≤40% but ≤80%; †† denotes activity >80% but ≤120%; ††† denotes activity >120% but ≤140%; †††† denotes activity >160%.

SMILES | amounts of hypoxia-induced sickled red blood cells [1] | survival times [1] | delta R (%) ([2]; compound at 9 μM) | delta p50% [3] | % delta Delay [4] | delta R (%) ([2]; compound at 30 μm)
O=Cc1ccc(CO)o1 [Compound 5HMF, 5-hydroxymethyl-2-furfuraldehyde] | reduced | significantly improved |  |  |  | 
O=Cc1c(O)cccc1OCc1cccc(-c2nn[nH]n2)c1 [Compound 44, 2-((3-(2H-tetrazol-5-yl)benzyl)oxy)-6-hydroxybenzaldehyde] |  |  | +++ (+++ indicates a delta R of 50 or greater) | + (+ indicates a delta p50% of between 0 and 29) |  | 
O=Cc1c(O)cccc1OCc1ccc(C(=O)O)cc1 [Compound 42, 4-((2-formyl-3-hydroxyphenoxy)methyl)benzoic acid] |  |  |  | + (+ indicates a delta p50% of between 0 and 29) | †† (†† denotes activity >80% but ≤120%) | +++ (30 μm) (+++ indicates a delta R of 50 or greater)
O=Cc1c(O)cccc1OCc1ccc(-c2nn[nH]n2)cc1 [Compound 45, 2-((4-(2H-tetrazol-5-yl)benzyl)oxy)-6-hydroxybenzaldehyde] |  |  | +++ (+++ indicates a delta R of 50 or greater) | + (+ indicates a delta p50% of between 0 and 29) | †† (†† denotes activity >80% but ≤120%) | 
O=Cc1ccccc1OCc1ccc(C(=O)O)cc1 [Compound 47, 4-((2-formylphenoxy)methyl)benzoic acid] |  |  |  |  | †† (†† denotes activity >80% but ≤120%) | 
